Source: patent publication US20020169101A1, “Treatment of sexual dysfunction” (priority 1999, published 2002)
Like-named read-outs stand apart in the source and are kept apart here.

Target: T1, human NMB receptor (BB1) (Homo sapiens, UniProt P28336)
T1 construct: expressed in transfected cells; membranes prepared from the cells
Experiment: BB1 binding assay ([125I][Tyr4]bombesin displacement, CHO-K1 membranes)
Settings: for Ki: Table 1, human NMB receptor binding affinity, Ki from IC50 by Cheng-Prusoff, read-out: NMB Ki
Experimental: In the following experiments, measurement of BB1 and BB2 binding was as follows. CHO-K1 cells stably expressing cloned human NMB (for (BB1 assay) and GRP receptors (for BB2 assay) were routinely grown in Ham's F12 culture medium supplemented with 10% foetal calf serum and 2 mM glutamine. For binding experiments, cells were harvested by trypsinization, and stored frozen at −70° C. in Ham's F12 culture medium containing 5% DMSO until required. On the day of use, cells were thawed rapidly, diluted with an excess of culture medium, and centrifuged for 5 minutes at 2000 g. Cells were resuspended in 50 mM Tris-HCl assay buffer (pH 7.4 at 21° C., containing 0.02% BSA, 40 μg/mL bacitracin, 2 μg/mL chymostatin, 4 μg/mL leupeptin, and 2 μM phosphoramidon), counted, and polytronned (setting 5, 10 sec) before centrifuging for 10 minutes at 28,000 g. The final pellet was resuspended in assay buffer to a final cell concentration of 1.5×10^5/mL. For binding assays, […] aliquots of membranes were incubated with [^125I][Tyr^4]bombesin (<0.1 nM) in the presence and absence of test compounds (final assay volume 250 μL) for 60 minutes and 90 minutes for NMB and GRP receptors, respectively. Nonspecific binding was defined by 1 μM bombesin. Assays were terminated by rapid filtration under vacuum onto Whatman GF/C filters presoaked in 0.2% PEI for >2 hours, and washed 50 mM Tris-HCl (pH 6.9 at 21° C.; 6×1 mL). Radioactivity bound was determined using a gamma counter.
All competition data was analysed using nonlinear regression utilizing iterative curve-plotting procedures in Prism® (GraphPad Software Inc., San Diego, USA). IC50 values were corrected to Ki values using the Cheng-Prusoff equation (Cheng Y., Prusoff W. H., Biochem. Pharmacol. 22: 3099-3108, 1973). obtained are listed in Table 1.

[1] = Table 3, N-acyl derivatives of Intermediate III-7
[2] = second 'TABLE 4', N-terminal urethane derivatives of Intermediate III-7

T1 sequence (P28336 whole entry): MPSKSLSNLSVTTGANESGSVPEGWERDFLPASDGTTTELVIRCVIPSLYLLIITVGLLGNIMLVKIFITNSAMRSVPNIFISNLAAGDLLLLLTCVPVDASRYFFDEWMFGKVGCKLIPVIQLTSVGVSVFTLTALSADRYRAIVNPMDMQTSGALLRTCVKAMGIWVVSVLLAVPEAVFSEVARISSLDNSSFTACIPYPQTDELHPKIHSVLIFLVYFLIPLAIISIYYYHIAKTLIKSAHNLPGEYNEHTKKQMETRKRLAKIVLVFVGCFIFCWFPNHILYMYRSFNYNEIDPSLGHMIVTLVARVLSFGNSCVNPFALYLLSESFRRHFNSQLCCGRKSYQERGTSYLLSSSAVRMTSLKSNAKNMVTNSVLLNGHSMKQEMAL

IC50 [nM]	SMILES	also measured
445	COc1cc(C)ccc1S(=O)(=O)N[C@@](C)(Cc1c[nH]c2ccccc12)C(=O)NCC1(c2ccccn2)CCCCC1 [Example 159]	–
297	C[C@@](Cc1c[nH]c2ccccc12)(NS(=O)(=O)c1ccc(S(=O)(=O)c2ccccc2)s1)C(=O)NCC1(c2ccccn2)CCCCC1 [Example 150]	–
513	C[C@@](Cc1c[nH]c2ccccc12)(NS(=O)(=O)c1ccc(Cl)cc1[N+](=O)[O-])C(=O)NCC1(c2ccccn2)CCCCC1 [Example 149]	–
–	C[C@@](Cc1c[nH]c2ccccc12)(NC(=O)c1cnc2ccccc2n1)C(=O)NCC1(c2ccccn2)CCCCC1 [Example 78, Quinoxaline-2-carboxyiic acid {(S)-2-(1H-indol-3-yl)-1-methyl-1-[(1-pyridin-2-yl-cyclohexylmethyl)-carbamoyl]-ethyl}-amide]	IC50 [1]: 1420 nM
1300	CN(C)c1cccc2c(S(=O)(=O)N[C@@](C)(Cc3c[nH]c4ccccc34)C(=O)NCC3(c4ccccn4)CCCCC3)cccc12 [Example 117]	–
374	C[C@@](Cc1c[nH]c2ccccc12)(NS(=O)(=O)c1cc([N+](=O)[O-])ccc1Cl)C(=O)NCC1(c2ccccn2)CCCCC1 [Example 147]	–
–	C[C@@](Cc1c[nH]c2ccccc12)(Nc1ccccc1-c1ccccc1)C(=O)NCC1(c2ccccn2)CCCCC1 [Example 21, (S)-2-(Biphenyl-2-ylamino)-3-(1H-indol-3-yl)-2-methyl-N-(1-pyridin-2-yl-cyclohexylmethyl)-propionamide]	Ki: 824 nM
256	C[C@@](Cc1c[nH]c2ccccc12)(NS(=O)(=O)c1cccc2nsnc12)C(=O)NCC1(c2ccccn2)CCCCC1 [Example 137]	–
553	C[C@@](Cc1c[nH]c2ccccc12)(NS(=O)(=O)c1ccc(C(F)(F)F)cc1)C(=O)NCC1(c2ccccn2)CCCCC1 [Example 127]	–
–	Cc1cc(C(=O)N[C@@](C)(Cc2c[nH]c3ccccc23)C(=O)NCC2(c3ccccn3)CCCCC2)no1 [Example 62]	IC50 [1]: 4130 nM
430	C[C@@](Cc1c[nH]c2ccccc12)(NS(=O)(=O)Cc1ccccc1[N+](=O)[O-])C(=O)NCC1(c2ccccn2)CCCCC1 [Example 142]	–
2480	Cc1nc(S(=O)(=O)N[C@@](C)(Cc2c[nH]c3ccccc23)C(=O)NCC2(c3ccccn3)CCCCC2)cn1C [Example 144]	–
187	C[C@@](Cc1c[nH]c2ccccc12)(NS(=O)(=O)c1cnc(Cl)c(Br)c1)C(=O)NCC1(c2ccccn2)CCCCC1 [Example 161]	–
167	COC(=O)c1sccc1S(=O)(=O)N[C@@](C)(Cc1c[nH]c2ccccc12)C(=O)NCC1(c2ccccn2)CCCCC1 [Example 140]	–
344	C[C@@](Cc1c[nH]c2ccccc12)(NS(=O)(=O)c1ccc(-c2ccccn2)s1)C(=O)NCC1(c2ccccn2)CCCCC1 [Example 160]	–
3670	Cn1cnc(S(=O)(=O)N[C@@](C)(Cc2c[nH]c3ccccc23)C(=O)NCC2(c3ccccn3)CCCCC2)c1 [Example 138]	–
242	COC(=O)c1ccccc1S(=O)(=O)N[C@@](C)(Cc1c[nH]c2ccccc12)C(=O)NCC1(c2ccccn2)CCCCC1 [Example 155]	–
1040	C[C@@](Cc1c[nH]c2ccccc12)(NS(=O)(=O)c1ccc(S(C)(=O)=O)cc1)C(=O)NCC1(c2ccccn2)CCCCC1 [Example 163]	–
404	C[C@@](Cc1c[nH]c2ccccc12)(NS(=O)(=O)c1ccc(Cl)s1)C(=O)NCC1(c2ccccn2)CCCCC1 [Example 128]	–
635	C[C@@](Cc1c[nH]c2ccccc12)(NS(=O)(=O)c1ccc(OC(F)(F)F)cc1)C(=O)NCC1(c2ccccn2)CCCCC1 [Example 151]	–
215	C[C@@](Cc1c[nH]c2ccccc12)(NS(=O)(=O)c1c(Cl)cc(Cl)cc1Cl)C(=O)NCC1(c2ccccn2)CCCCC1 [Example 148]	–
–	C[C@@](Cc1c[nH]c2ccccc12)(NC(=O)c1ccccn1)C(=O)NCC1(c2ccccn2)CCCCC1 [Example 57]	IC50 [1]: 3710 nM
608	COc1ccc(S(=O)(=O)N[C@@](C)(Cc2c[nH]c3ccccc23)C(=O)NCC2(c3ccccn3)CCCCC2)cc1OC [Example 132]	–

IC50 [nM]	SMILES	also measured
–	C[C@@](Cc1c[nH]c2ccccc12)(NC(=O)c1ccco1)C(=O)NCC1(c2ccccn2)CCCCC1 [Example 60]	IC50 [1]: 1200 nM
1250	Cc1nn(C)c(Cl)c1S(=O)(=O)N[C@@](C)(Cc1c[nH]c2ccccc12)C(=O)NCC1(c2ccccn2)CCCCC1 [Example 135]	–
267	C[C@@](Cc1c[nH]c2ccccc12)(NS(=O)(=O)c1ccccc1F)C(=O)NCC1(c2ccccn2)CCCCC1 [Example 114]	–
766	C[C@@](Cc1c[nH]c2ccccc12)(NS(=O)(=O)c1ccc(C#N)cc1)C(=O)NCC1(c2ccccn2)CCCCC1 [Example 133]	–
–	C[C@@](Cc1c[nH]c2ccccc12)(NC(=O)OCc1ccc2ncccc2c1)C(=O)NCC1(c2ccccn2)CCCCC1 [Example 110, {(S)-2-(1H-Indol-3-y1)-1-methyl-1-[(1-pyridin-2-yl-cyclohexylmethyl)-carbamoyl]-ethyl}-carbamic acid quinolin-6-ylmethyl ester]	IC50 [2]: 171 nM
322	C[C@@](Cc1c[nH]c2ccccc12)(NS(=O)(=O)c1ccc2ccccc2c1)C(=O)NCC1(c2ccccn2)CCCCC1 [Example 118]	–
232	C[C@@](Cc1c[nH]c2ccccc12)(NS(=O)(=O)c1cccs1)C(=O)NCC1(c2ccccn2)CCCCC1 [Example 119]	–
172	Cc1cc(S(=O)(=O)N[C@@](C)(Cc2c[nH]c3ccccc23)C(=O)NCC2(c3ccccn3)CCCCC2)c(Cl)cc1Cl [Example 165]	–
–	C[C@@](Cc1c[nH]c2ccccc12)(NC(=O)OCc1ccc(Cl)cc1Cl)C(=O)NCC1(c2ccccn2)CCCCC1 [Example 104, {(S)-2-(1H-Indol-3-y1)-1-methyl-1-[(1-pyridin-2-yl-cyclohexylmethyl)-carbamoyl]-ethyl}-carbamic acid 2,4-dichloro-benzyl ester]	IC50 [2]: 450 nM
177	C[C@@](Cc1c[nH]c2ccccc12)(NS(=O)(=O)c1cccc2cccc([N+](=O)[O-])c12)C(=O)NCC1(c2ccccn2)CCCCC1 [Example 146]	–
–	Cn1cccc1C(=O)N[C@@](C)(Cc1c[nH]c2ccccc12)C(=O)NCC1(c2ccccn2)CCCCC1 [Example 63, 1-Methyl-1H-pyrrole-2-carboxylic acid {(S)-2-(1H-indol-3-yl)-1-methyl-1-[(1-pyridin-2-yl-cyclohexylmethyl)-carbamoyl]-ethyl}-amide]	IC50 [1]: 4820 nM
557	Cc1ccc(S(=O)(=O)N[C@@](C)(Cc2c[nH]c3ccccc23)C(=O)NCC2(c3ccccn3)CCCCC2)cc1 [Example 112]	–
216	C[C@@](Cc1c[nH]c2ccccc12)(NS(=O)(=O)c1ccc(Cl)c(Cl)c1)C(=O)NCC1(c2ccccn2)CCCCC1 [Example 125]	–
408	C[C@@](Cc1c[nH]c2ccccc12)(NS(=O)(=O)c1ccccc1C#N)C(=O)NCC1(c2ccccn2)CCCCC1 [Example 134]	–
–	C[C@@](Cc1c[nH]c2ccccc12)(NC(=O)c1ccc2[nH]nnc2c1)C(=O)NCC1(c2ccccn2)CCCCC1 [Example 73, 1H-Benzotriazole-5-carboxylic acid {(S)-2-(1H-indol-3-yl)-1-methyl-1-[(1-pyridin-2-yl-cyclohexylmethyl)-carbamoyl]-ethyl}-amide]	IC50 [1]: 3170 nM
507	C[C@@](Cc1c[nH]c2ccccc12)(NS(=O)(=O)c1cccc2nonc12)C(=O)NCC1(c2ccccn2)CCCCC1 [Example 139]	–
492	CCCCc1ccc(S(=O)(=O)N[C@@](C)(Cc2c[nH]c3ccccc23)C(=O)NCC2(c3ccccn3)CCCCC2)cc1 [Example 168]	–
406	CC(C)(C)c1ccc(S(=O)(=O)N[C@@](C)(Cc2c[nH]c3ccccc23)C(=O)NCC2(c3ccccn3)CCCCC2)cc1 [Example 164]	–
534	C[C@@](Cc1c[nH]c2ccccc12)(NS(=O)(=O)c1ccc(-c2ccon2)s1)C(=O)NCC1(c2ccccn2)CCCCC1 [Example 141]	–
–	C[C@@](Cc1c[nH]c2ccccc12)(NCc1cc2ccccc2o1)C(=O)NCC1(c2ccccn2)CCCCC1 [Example 26]	Ki: 2400 nM
134	C[C@@](Cc1c[nH]c2ccccc12)(NS(=O)(=O)c1ccccc1C(F)(F)F)C(=O)NCC1(c2ccccn2)CCCCC1 [Example 129, (S)-3-(1H-indol-3-yl)-2-methyl-N-(1-pyridin-2-yl-cyclohexylmethyl)-2-(2-trifluoromethyl-benzenesulfonylamino)-propionamide]	–
–	C[C@@](Cc1c[nH]c2ccccc12)(NC(=O)c1ccoc1)C(=O)NCC1(c2ccccn2)CCCCC1 [Example 59]	IC50 [1]: 1200 nM

SMILES	IC50 [nM]	also measured
C[C@@](Cc1c[nH]c2ccccc12)(NS(=O)(=O)c1ccc(Cl)c(C(F)(F)F)c1)C(=O)NCC1(c2ccccn2)CCCCC1 [Example 166]	627	–
C[C@@](Cc1c[nH]c2ccccc12)(NS(=O)(=O)c1ccc([N+](=O)[O-])cc1[N+](=O)[O-])C(=O)NCC1(c2ccccn2)CCCCC1 [Example 162]	475	–
